target: T1, Plasminogen activator inhibitor 1 (Homo sapiens, UniProt P05121); assay: Inhibition of human PAI-1 assessed as remaining enzyme activity by measuring p-nitroaniline release pre-incubated for 15 mins before 9.8 nM human tPA substrate addition for 15 mins using 24.5 nM enzyme and chromogenic substrate S-2288 by spectrophotometry; details: not given
T1 sequence (P05121 whole entry): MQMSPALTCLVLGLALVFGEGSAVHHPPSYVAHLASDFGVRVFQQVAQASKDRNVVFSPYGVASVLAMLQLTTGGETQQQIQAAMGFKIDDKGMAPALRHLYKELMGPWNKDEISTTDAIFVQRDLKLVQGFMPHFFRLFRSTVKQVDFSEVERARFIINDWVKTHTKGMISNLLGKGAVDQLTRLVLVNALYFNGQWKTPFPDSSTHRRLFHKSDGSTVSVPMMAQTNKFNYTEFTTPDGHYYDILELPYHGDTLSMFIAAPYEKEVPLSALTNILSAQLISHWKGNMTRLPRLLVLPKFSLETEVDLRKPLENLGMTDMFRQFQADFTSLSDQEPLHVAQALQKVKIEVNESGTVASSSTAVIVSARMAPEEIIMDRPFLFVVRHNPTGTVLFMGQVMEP

| SMILES | IC50 |
| --- | --- |
| O=C(COCC(=O)N1CCN(C(c2ccccc2)c2ccccc2)CC1)Nc1ccc(Cl)cc1C(=O)O | 7.94 µM |

test system: not listed separately; assay: Cmax in Wistar rat at 5 mg/kg, po administered as single dose measured after 1 to 24 hrs by reverse-phase HPLC method; type: ADME, organism-based; design: dose 5 mg/kg, route oral; details: in vivo

| SMILES | Cmax |
| --- | --- |
| COc1cccc(-c2ccc(C)c(NC(=O)COCC(=O)Nc3ccc(Cl)cc3C(=O)O)c2)c1 | 9.4 µM |
| COc1ccccc1-c1ccc(C)c(NC(=O)COCC(=O)Nc2ccc(Cl)cc2C(=O)O)c1 | 2.08 µM |
| O=C(COCC(=O)Nc1ccc(Cl)cc1C(=O)O)Nc1cccc(-c2ccco2)c1 | 11.5 µM |
| O=C(COCC(=O)Nc1ccc(Cl)cc1C(=O)[O-])Nc1cccc(-n2cccc2)c1.[Na+] | 7.4 µM |
| O=C(COCC(=O)Nc1ccc(Cl)cc1C(=O)O)Nc1ccc(-c2ccoc2)cc1 | 17.6 µM |
| O=C(COCC(=O)Nc1ccc(Cl)cc1C(=O)O)Nc1cccc(-c2ccoc2)c1 | 17.9 µM |
| COc1ccc(-c2ccc(C)c(NC(=O)COCC(=O)Nc3ccc(Cl)cc3C(=O)O)c2)cc1 | 2.2 µM |
| CCN(C(=O)COCC(=O)Nc1ccc(Cl)cc1C(=O)O)c1cc(-c2ccc(F)cc2)ccc1C | 0.82 µM |
| O=C(COCC(=O)Nc1ccc(Cl)cc1C(=O)O)Nc1cccc(-c2ccno2)c1 | 14 µM |
| O=C(COCC(=O)Nc1ccc(Cl)cc1C(=O)O)Nc1cccc(-c2cn[nH]c2)c1 | 1.7 µM |
| O=C(COCC(=O)Nc1ccc(Cl)cc1C(=O)O)Nc1cccc(-c2ccon2)c1 | 2 µM |

test system: not listed separately; assay: Half life in Wistar rat at 5 mg/kg, po administered as single dose measured after 1 to 24 hrs by reverse-phase HPLC method; details: in vivo

| SMILES | half-life |
| --- | --- |
| COc1cccc(-c2ccc(C)c(NC(=O)COCC(=O)Nc3ccc(Cl)cc3C(=O)O)c2)c1 | 1.5 h |
| COc1ccccc1-c1ccc(C)c(NC(=O)COCC(=O)Nc2ccc(Cl)cc2C(=O)O)c1 | 2.5 h |
| O=C(COCC(=O)Nc1ccc(Cl)cc1C(=O)O)Nc1cccc(-c2ccco2)c1 | 4 h |
| O=C(COCC(=O)Nc1ccc(Cl)cc1C(=O)[O-])Nc1cccc(-n2cccc2)c1.[Na+] | 2.2 h |
| O=C(COCC(=O)Nc1ccc(Cl)cc1C(=O)O)Nc1ccc(-c2ccoc2)cc1 | 4.2 h |
| COc1ccc(-c2ccc(C)c(NC(=O)COCC(=O)Nc3ccc(Cl)cc3C(=O)O)c2)cc1 | 1 h |
| CCN(C(=O)COCC(=O)Nc1ccc(Cl)cc1C(=O)O)c1cc(-c2ccc(F)cc2)ccc1C | 0.9 h |
| O=C(COCC(=O)Nc1ccc(Cl)cc1C(=O)O)Nc1cccc(-c2ccno2)c1 | 6 h |
| O=C(COCC(=O)Nc1ccc(Cl)cc1C(=O)O)Nc1cccc(-c2cn[nH]c2)c1 | 3.1 h |
| O=C(COCC(=O)Nc1ccc(Cl)cc1C(=O)O)Nc1cccc(-c2ccon2)c1 | 1.9 h |

test system: not listed separately; assay: Cmax in Wistar rat at 5 mg/kg, po administered as triple or quadruple dosing measured after 1 to 24 hrs by reverse-phase HPLC method; type: ADME, organism-based; design: dose 5 mg/kg, route oral; details: in vivo

| SMILES | Cmax |
| --- | --- |
| O=C(Nc1cccc(-c2ccoc2)c1)C(=O)Nc1ccc(Cl)cc1C(=O)O | 22.5 µM |
| O=C(Nc1ccc(Cl)cc1C(=O)O)c1ccc(C2CCOCC2)cc1 | 45.5 µM |
| O=C(CSCC(=O)Nc1ccc(Cl)cc1C(=O)O)Nc1cccc(-c2ccoc2)c1 | 5.4 µM |
| O=C(NCc1cccc(-c2ccoc2)c1)C(=O)Nc1ccc(Cl)cc1C(=O)O | 41.6 µM |
| O=C(Nc1ccc(Cl)cc1C(=O)O)c1cccc(-c2cccc3ccccc23)c1 | 6.3 µM |
| O=C(Nc1ccc(Cl)cc1C(=O)O)c1cccc(C2CCCCC2)c1 | 3.3 µM |
| O=C(Nc1ccc(Cl)cc1C(=O)[O-])c1cccc(-c2cncc3ccccc23)c1.[Na+] | 1 µM |
| O=C(Nc1ccc(Cl)cc1C(=O)[O-])c1cccc(-c2cccc3cccnc23)c1.[Na+] | 22.2 µM |
| O=C(Cc1cccc(-c2ccoc2)c1)Nc1ccc(Cl)cc1C(=O)O | 43.1 µM |
| O=C(Nc1ccc(Cl)cc1C(=O)O)c1ccc(-c2cccs2)cc1 | 38.4 µM |
| O=C(Nc1ccc(Cl)cc1C(=O)O)c1ccc(C(=O)c2ccccc2)cc1 | 35 µM |
| O=C(Nc1ccc(Cl)cc1C(=O)[O-])c1cccc(-c2cnc3ccccc3c2)c1.[Na+] | 1.1 µM |

test system: not listed separately; assay: Half life in Wistar rat at 5 mg/kg, po administered as triple or quadruple dosing measured after 1 to 24 hrs by reverse-phase HPLC method; type: ADME, organism-based; details: in vivo

| SMILES | half-life |
| --- | --- |
| O=C(Nc1cccc(-c2ccoc2)c1)C(=O)Nc1ccc(Cl)cc1C(=O)O | 1.7 h |
| O=C(Nc1ccc(Cl)cc1C(=O)O)c1ccc(C2CCOCC2)cc1 | 1.8 h |
| O=C(CSCC(=O)Nc1ccc(Cl)cc1C(=O)O)Nc1cccc(-c2ccoc2)c1 | 2.6 h |
| O=C(NCc1cccc(-c2ccoc2)c1)C(=O)Nc1ccc(Cl)cc1C(=O)O | > 22 h |
| O=C(Nc1ccc(Cl)cc1C(=O)O)c1cccc(-c2cccc3ccccc23)c1 | 1.7 h |
| O=C(Nc1ccc(Cl)cc1C(=O)O)c1cccc(C2CCCCC2)c1 | 1.4 h |
| O=C(Nc1ccc(Cl)cc1C(=O)[O-])c1cccc(-c2cncc3ccccc23)c1.[Na+] | 9.2 h |
| O=C(Nc1ccc(Cl)cc1C(=O)[O-])c1cccc(-c2cccc3cccnc23)c1.[Na+] | 2.5 h |
| O=C(Cc1cccc(-c2ccoc2)c1)Nc1ccc(Cl)cc1C(=O)O | 1.9 h |
| O=C(Nc1ccc(Cl)cc1C(=O)O)c1ccc(-c2cccs2)cc1 | 1.9 h |
| O=C(Nc1ccc(Cl)cc1C(=O)O)c1ccc(C(=O)c2ccccc2)cc1 | 0.9 h |
| O=C(Nc1ccc(Cl)cc1C(=O)[O-])c1cccc(-c2cnc3ccccc3c2)c1.[Na+] | 3.5 h |

test system: not listed separately; assay: Cmax in Wistar rat at 50 mg/kg, po administered as single dose measured after 1 to 24 hrs by reverse-phase HPLC method; type: ADME, organism-based; design: dose 50 mg/kg, route oral; details: in vivo

| SMILES | Cmax |
| --- | --- |
| O=C(COCC(=O)N1CCN(C(c2ccccc2)c2ccccc2)CC1)Nc1ccc(Cl)cc1C(=O)O | 34.2 µM |
| O=C(COCC(=O)Nc1ccc(Cl)cc1C(=O)O)Nc1cccc(-c2ccoc2)c1 | 149 µM |

test system: not listed separately; assay: Half life in Wistar rat at 50 mg/kg, po administered as single dose measured after 1 to 24 hrs by reverse-phase HPLC method; details: in vivo

| SMILES | half-life |
| --- | --- |
| O=C(COCC(=O)N1CCN(C(c2ccccc2)c2ccccc2)CC1)Nc1ccc(Cl)cc1C(=O)O | 2.5 h |

test system: not listed separately; assay: Tmax in Wistar rat at 50 mg/kg, po administered as single dose measured after 1 to 24 hrs by reverse-phase HPLC method; type: ADME, organism-based; details: in vivo

| SMILES | Tmax |
| --- | --- |
| O=C(COCC(=O)N1CCN(C(c2ccccc2)c2ccccc2)CC1)Nc1ccc(Cl)cc1C(=O)O | 2 h |
| O=C(COCC(=O)Nc1ccc(Cl)cc1C(=O)O)Nc1cccc(-c2ccoc2)c1 | 1 h |

test system: not listed separately; assay: Tmax in Wistar rat at 5 mg/kg, po administered as triple or quadruple dosing measured after 1 to 24 hrs by reverse-phase HPLC method; type: ADME, organism-based; details: in vivo

| SMILES | Tmax |
| --- | --- |
| O=C(Nc1cccc(-c2ccoc2)c1)C(=O)Nc1ccc(Cl)cc1C(=O)O | 2 h |
| O=C(Nc1ccc(Cl)cc1C(=O)O)c1ccc(C2CCOCC2)cc1 | 1 h |
| O=C(CSCC(=O)Nc1ccc(Cl)cc1C(=O)O)Nc1cccc(-c2ccoc2)c1 | 1 h |
| O=C(NCc1cccc(-c2ccoc2)c1)C(=O)Nc1ccc(Cl)cc1C(=O)O | 2 h |
| O=C(Nc1ccc(Cl)cc1C(=O)O)c1cccc(-c2cccc3ccccc23)c1 | 2 h |
| O=C(Nc1ccc(Cl)cc1C(=O)O)c1cccc(C2CCCCC2)c1 | 1 h |
| O=C(Nc1ccc(Cl)cc1C(=O)[O-])c1cccc(-c2cncc3ccccc23)c1.[Na+] | 6 h |
| O=C(Nc1ccc(Cl)cc1C(=O)[O-])c1cccc(-c2cccc3cccnc23)c1.[Na+] | 1 h |
| O=C(Cc1cccc(-c2ccoc2)c1)Nc1ccc(Cl)cc1C(=O)O | 2 h |
| O=C(Nc1ccc(Cl)cc1C(=O)O)c1ccc(-c2cccs2)cc1 | 2 h |
| O=C(Nc1ccc(Cl)cc1C(=O)O)c1ccc(C(=O)c2ccccc2)cc1 | 1 h |
| O=C(Nc1ccc(Cl)cc1C(=O)[O-])c1cccc(-c2cnc3ccccc3c2)c1.[Na+] | 2 h |

target: T1, Plasminogen activator inhibitor 1; assay: Inhibition of human PAI-1 assessed as remaining enzyme activity by measuring p-nitroaniline release pre-incubated for 15 mins before 2 nM […] addition for 15 mins using 5 nM enzyme and chromogenic substrate S-2288 by spectrophotometry; details: not given

| SMILES | IC50 |
| --- | --- |
| O=C(Nc1ccc(Cl)cc1C(=O)O)c1ccc(C2CCOCC2)cc1 | 21.6 µM |
| O=C(Nc1ccc(Cl)cc1C(=O)O)c1cccc(-c2cccc3ccccc23)c1 | 0.9 µM |
| O=C(Nc1ccc(Cl)cc1C(=O)O)c1cccc(C2CCCCC2)c1 | 2.42 µM |
| O=C(Nc1ccc(Cl)cc1C(=O)[O-])c1cccc(-c2cncc3ccccc23)c1.[Na+] | 3.19 µM |
| O=C(Nc1ccc(Cl)cc1C(=O)[O-])c1cccc(-c2cccc3cccnc23)c1.[Na+] | 3.63 µM |
| O=C(Nc1ccc(Cl)cc1C(=O)O)c1ccc(-c2cccs2)cc1 | > 20 µM |
| O=C(Nc1ccc(Cl)cc1C(=O)O)c1ccc(C(=O)c2ccccc2)cc1 | 4.11 µM |
| O=C(Nc1ccc(Cl)cc1C(=O)[O-])c1cccc(-c2cnc3ccccc3c2)c1.[Na+] | 1.67 µM |

test system: not listed separately; assay: Tmax in Wistar rat at 5 mg/kg, po administered as single dose measured after 1 to 24 hrs by reverse-phase HPLC method; type: ADME, organism-based; details: in vivo

| SMILES | Tmax |
| --- | --- |
| COc1cccc(-c2ccc(C)c(NC(=O)COCC(=O)Nc3ccc(Cl)cc3C(=O)O)c2)c1 | 2 h |
| COc1ccccc1-c1ccc(C)c(NC(=O)COCC(=O)Nc2ccc(Cl)cc2C(=O)O)c1 | 2 h |
| O=C(COCC(=O)Nc1ccc(Cl)cc1C(=O)O)Nc1cccc(-c2ccco2)c1 | 2 h |
| O=C(COCC(=O)Nc1ccc(Cl)cc1C(=O)[O-])Nc1cccc(-n2cccc2)c1.[Na+] | 2 h |
| O=C(COCC(=O)Nc1ccc(Cl)cc1C(=O)O)Nc1ccc(-c2ccoc2)cc1 | 2 h |
| O=C(COCC(=O)Nc1ccc(Cl)cc1C(=O)O)Nc1cccc(-c2ccoc2)c1 | 1 h |
| COc1ccc(-c2ccc(C)c(NC(=O)COCC(=O)Nc3ccc(Cl)cc3C(=O)O)c2)cc1 | 2 h |
| CCN(C(=O)COCC(=O)Nc1ccc(Cl)cc1C(=O)O)c1cc(-c2ccc(F)cc2)ccc1C | 1 h |
| O=C(COCC(=O)Nc1ccc(Cl)cc1C(=O)O)Nc1cccc(-c2ccno2)c1 | 1 h |
| O=C(COCC(=O)Nc1ccc(Cl)cc1C(=O)O)Nc1cccc(-c2cn[nH]c2)c1 | 1 h |
| O=C(COCC(=O)Nc1ccc(Cl)cc1C(=O)O)Nc1cccc(-c2ccon2)c1 | 2 h |

From ChEMBL document CHEMBL4184220, “Identification of novel plasminogen activator inhibitor-1 inhibitors with improved oral bioavailability: Structure optimization of N-acylanthranilic acid derivatives” (Bioorg Med Chem Lett, 2018)
